Results published in patent publication US8722070B2, “Active compound combinations having insecticidal and acaricidal properties” (Bayer CropScience AG, priority 2000, dated 2014).

What was measured:
[1] = tested on: cotton aphid (Aphis gossypii); test: Aphis gossypii test (cotton leaves dipped into the preparation of active compound); type: in vivo; conditions: individual active compound, 1.6 ppm, cotton leaves (Gossypium hirsutum)
Text: (§1) The expected action for a given combination of two active compounds can be calculated as follows, using the formula of S. R. Colby, Weeds 15 (1967), 20-22):
(§2) • X is the kill rate, expressed as a percentage of the untreated control, when employing active compound A at an application rate of m g/ha or in a concentration of m ppm, • Y is the kilt rate, expressed as a percentage of the untreated control, when employing active compound B at an application rate of n g/ha or in a concentration of n ppm and • E is the kill rate, expressed as a percentage of the untreated control, when employing active compounds A and B at application rates of m and n g/ha or in a concentration of m and n ppm, then
(§3) If the actual insecticidal kill rate exceeds the calculated value, the action of the combination is superadditive, i.e. a synergistic effect is present. In this case, the actually observed kill rate must exceed the value calculated using the above formula for the expected kill rate (E).
(§4) After the desired period of time, the kill rate in % is determined. 100% means that all the animals have been killed; 0% means that none of the animals has been killed.
(§5) Solvent: 3 parts by weight of dimethylformamide
(§6) Emulsifier: 1 part by weight of alkylaryl polyglycol ether […]
After the desired period of time, the kill in % is determined. […] The kill rates that are determined are calculated using Colby formula.

[2] = tested on: peach aphid (Myzus persicae); test: Myzus test (cabbage leaves dipped into the preparation of active compound); type: in vivo; conditions: individual active compound, 1.6 ppm, cabbage leaves (Brassica oleracea)
Text: as §1, §2, §3, §4, §5, §6
After the desired period of time, the kill in % is determined. […] The kill rates determined are calculated using Colby's formula.

CC1(C)C(C=C(Cl)Cl)C1C(=O)OC(C#N)c1ccc(F)c(Oc2ccccc2)c1 (centres unmarked) [cyfluthrin, Cyfluthrin]
Kill rates in % after 6d [1]: 75% | Kill rates in % after 1d [2]: 25%
